Results published in patent US7935722B2 (Eli Lilly and Company, priority 2005, dated 2011).
Read-outs that look alike come from different tables or passages of the source.

Experiments:
[1] = molecular target: T1, human AR (androgen receptor) (Homo sapiens, UniProt P10275); test: Steroid hormone nuclear receptor binding assay, AR binding
T1 construct: expressed in transfected cells; host or cells: 293 cells (293-AR lysate)
T1 sequence (P10275 1-920): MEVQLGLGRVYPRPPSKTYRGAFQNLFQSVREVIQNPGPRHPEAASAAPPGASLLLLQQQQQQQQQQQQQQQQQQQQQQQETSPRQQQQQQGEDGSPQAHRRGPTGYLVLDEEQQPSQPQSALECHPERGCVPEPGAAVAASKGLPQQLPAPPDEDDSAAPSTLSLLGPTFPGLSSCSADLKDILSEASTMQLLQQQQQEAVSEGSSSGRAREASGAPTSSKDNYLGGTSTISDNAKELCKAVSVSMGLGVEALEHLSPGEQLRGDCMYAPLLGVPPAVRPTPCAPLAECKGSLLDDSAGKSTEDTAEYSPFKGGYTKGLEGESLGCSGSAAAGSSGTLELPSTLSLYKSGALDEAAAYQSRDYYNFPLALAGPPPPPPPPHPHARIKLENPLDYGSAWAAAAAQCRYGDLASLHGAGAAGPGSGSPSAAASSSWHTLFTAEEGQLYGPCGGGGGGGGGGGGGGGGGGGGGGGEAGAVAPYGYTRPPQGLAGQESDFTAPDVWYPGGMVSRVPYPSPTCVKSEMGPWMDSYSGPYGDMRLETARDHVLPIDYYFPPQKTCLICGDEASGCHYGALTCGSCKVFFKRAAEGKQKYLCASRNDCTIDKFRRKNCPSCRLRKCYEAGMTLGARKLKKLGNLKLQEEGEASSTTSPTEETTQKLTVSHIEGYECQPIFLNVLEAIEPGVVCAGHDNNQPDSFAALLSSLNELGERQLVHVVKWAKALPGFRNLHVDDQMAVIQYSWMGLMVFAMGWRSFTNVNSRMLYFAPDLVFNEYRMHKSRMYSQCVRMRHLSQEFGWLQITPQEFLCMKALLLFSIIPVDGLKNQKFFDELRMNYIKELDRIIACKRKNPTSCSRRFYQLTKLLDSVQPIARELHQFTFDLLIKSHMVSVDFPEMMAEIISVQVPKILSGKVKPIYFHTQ
Method: Cell lysates from 293 cells overexpressing human GR (glucocorticoid receptor), AR (androgen receptor), MR (mineralocorticoid receptor) or PR (progesterone receptor) are used for competition binding assays to determine Ki values for test compounds. […] Competing compounds are added at various concentrations ranging from about 0.01 nM to 10 μM. Non-specific binding is determined in the presence of 500 nM dexamethasone for GR binding, 500 nM aldosterone for MR binding, or 500 nM methyltrienolone for AR and PR binding. The binding reaction (140 μl) is incubated for overnight at 4° C., then 70 μl of cold charcoal-dextran buffer (containing per 50 ml of assay buffer, 0.75 g of charcoal and 0.25 g of dextran) is added to each reaction. Plates are mixed 8 minutes on an orbital shaker at 4° C. Plates are then centrifuged at 3,000 rpm at 4° C. for 10 minutes. An aliquot of 120 μl of the mix is transferred to another 96-well plate and 175 μl of Wallac Optiphase “Hisafe 3” scintillation fluid is added to each well. Plates are sealed and shaken vigorously on an orbital shaker. After an incubation of 2 hrs, plates are read in a Wallac Microbeta counter. […] The Kd for ^3H-dexamethasone for GR binding, ^3H-methyltrienolone for AR binding, ^3H-aldosterone for MR binding, or ^3H-methyltrienolone for PR binding, is determined by saturation binding. The IC50 values for test compounds are converted to Ki using Cheng-Prusoff equation and the Kd determined by saturation binding assay. […]

[2] = molecular target: T2, human androgen receptor (AR) (Homo sapiens, UniProt P10275); test: C2C12 AR/ARE reporter assay; type: cell-based
T2 construct: expressed in transfected cells; host or cells: mouse myoblast C2C12 cells, transiently co-transfected
T2 sequence (P10275 1-920): T1 sequence (P10275 1-920)
Method: As an indicator of agonist activity in muscle tissue, the C2C12 AR/ARE reporter assay is performed. Briefly, mouse myoblast C2C12 cells are co-transfected using FuGENE™. […] Cells are transfected in T150 cm^2 flasks in DMEM media with 4% or 10% Fetal Bovine Serum […]. After a 5 hour incubation, transfected cells are trypsinized, plated in 96 well dishes in DMEM media containing 10% charcoal-stripped FBS, incubated for 2 h and then exposed to various concentrations of test compounds ranging from about 0.01 nM to 10 μM. After 48 h of incubations with compounds, cells are lysed and luciferase activity is determined using standard techniques. Data is fit to a 4 parameter-fit logistics to determine EC50 values. The % efficacy is determined versus maximum stimulation obtained with 10 nM methyltrienolone. […]

[3] = C2C12, read-out: C2C12 % Efficacy

CN(C)S(=O)(=O)NC1CCc2c(c3cc(C#N)ccc3n2Cc2cccc(F)c2)C1 (stereo not drawn) [Example 213, N-[6-Cyano-9-(3-fluoro-benzyl)-2,3,4,9-tetrahydro-1H-carbazol-3-yl]-N′,N′-dimethylmethanesulfamide]
Ki [1]: 3.2 nM | EC50 [2]: 40.2 nM | Emax [2, 3]: 95.4%

CC(C)C(=O)N[C@@H]1CCc2c(c3cc(-c4nnc(N)s4)ccc3n2Cc2cccc(F)c2)C1 [Example 126, (R)-N-[6-(5-Amino[1,3,4]thiadiazol-2-yl)-9-(3-fluorobenzyl)-2,3,4,9-tetrahydro-1H-carbazol-3-yl]isobutyramide]
Ki [1]: 19 nM | EC50 [2]: 31.3 nM | Emax [2, 3]: 87%

CCOc1ccc2c(c1)c1c(n2Cc2cccc(F)c2)CCC(NC(=O)C(C)C)C1 (stereo not drawn) [Example 93, N-[6-Ethoxy-9-(3-fluoro-benzyl)-2,3,4,9-tetrahydro-1H-carbazol-3-yl]-isobutyramide]
Ki [1]: 6.8 nM | EC50 [2]: 5 nM | Emax [2, 3]: 82.4%

CC(C)C(=O)NC1CCc2c(c3cc(C#N)ccc3n2Cc2ccccn2)C1 (stereo not drawn) [Example 146]
Ki [1]: 12.7 nM | EC50 [2]: 15.5 nM | Emax [2, 3]: 86.8%

O=C(NC1CCc2c(c3cc(OC(F)(F)F)ccc3n2Cc2cccc(F)c2)C1)C1CC1 (stereo not drawn) [Example 167]
Ki [1]: 7.8 nM | EC50 [2]: 13.7 nM | Emax [2, 3]: 82.4%

COc1ccccc1Cn1c2c(c3cc(C#N)ccc31)CC(NC(=O)C(C)C)CC2 (stereo not drawn) [Example 105, N-[6-Cyano-9-(2-methoxy-benzyl)-2,3,4,9-tetrahydro-1H-carbazol-3-yl]-isobutyramide]
Ki [1]: 7.7 nM | EC50 [2]: 30.7 nM | Emax [2, 3]: 97.5%

COc1ccc2c(c1)c1c(n2Cc2cccnc2)CCC(NC(=O)C(C)C)C1 (stereo not drawn) [Example 144]
Ki [1]: 737 nM | EC50 [2]: 275 nM | Emax [2, 3]: 41.4%

Cc1cccc(Cn2c3c(c4cc(Cl)ccc42)CC(NC(=O)C(C)C)CC3)c1 (stereo not drawn) [Example 82]
Ki [1]: 6.1 nM | EC50 [2]: 37.1 nM | Emax [2, 3]: 87.3%

O=Cc1ccc2c(c1)c1c(n2Cc2ccccn2)CCC(NC(=O)C2CC2)C1 (stereo not drawn) [Example 206]
Ki [1]: 99.2 nM | EC50 [2]: 206 nM | Emax [2, 3]: 96.1%

N#Cc1ccc2c(c1)c1c(n2Cc2cccc(F)c2)CCC(NS(=O)(=O)C2CC2)C1 (stereo not drawn) [Example 177, Cyclopropanesulfonic acid[6-cyano-9-(3-fluoro-benzyl)-2,3,4,9-tetrahydro-1H-carbazol-3-yl)-amide]
Ki [1]: 3.8 nM | EC50 [2]: 102 nM | Emax [2, 3]: 75.2%

CC(C)C(=O)NC1CCc2c(c3cc(C#N)ccc3n2Cc2cnc(Cl)s2)C1 (stereo not drawn) [Example 155, N-[9-(2-Chloro-thiazol-5-ylmethyl)-6-cyano-2,3,4,9-tetrahydro-1H-carbazol-3-yl]-isobutyramide]
Ki [1]: 13.5 nM | EC50 [2]: 102 nM | Emax [2, 3]: 54.8%

CC(C)C(=O)NC1CCc2c(c3cc(C#N)ccc3n2Cc2ccc(Cl)s2)C1 (stereo not drawn) [Example 148, N-[9-(5-Chloro-thiophen-2-ylmethyl)-6-cyano-2,3,4,9-tetrahydro-1H-carbazol-3-yl]-isobutyramide]
Ki ([1]; average of n trials, read-out: AR binding Ki): 7.3 nM | Emax ([2]; C2C12 AR/ARE reporter assay, average of n trials, read-out: C2C12 % Efficacy): 86.7% | EC50 ([2]; C2C12 AR/ARE reporter assay, average of n trials, read-out: C2C12 EC50): 23.8 nM

CC(C)C(=O)NC1CCc2c(c3cc(Cl)ccc3n2Cc2cccc(O)c2)C1 (stereo not drawn) [Example 102, N-[^6-Chloro-9-(3-hydroxy-benzyl)-2,3,4,9-tetrahydro-1H-carbazol-3-yl]-isobutyramide]
Ki [1]: 16.8 nM | EC50 [2]: 300 nM | Emax [2, 3]: 39.6%

Cc1nc(-c2ccc3c(c2)c2c(n3Cc3cccc(F)c3)CC[C@@H](NC(=O)C(C)C)C2)sc1C [Example 129]
Ki [1]: 196 nM | EC50 [2]: 73.6 nM | Emax [2, 3]: 65.5%

CC(C)C(=O)NC1CCc2c(c3cc(OCC4CC4)ccc3n2Cc2cccc(F)c2)C1 (stereo not drawn) [Example 92, N-[6-Cyclopropylmetboxy-9-(3-fluoro-benzyl)-2,3,4,9-tetrahydro-1H-carbazol-3-yl]-isobutyramide]
Ki [1]: 4.1 nM | EC50 [2]: 3 nM | Emax [2, 3]: 73.4%

COc1ccc2c(c1)c1c(n2Cc2ccc(Cl)cc2)CCC(NC(=O)C(C)C)C1 (stereo not drawn) [Example 71]
Ki [1]: 82.5 nM | EC50 [2]: 402 nM | Emax [2, 3]: 40.7%
